In patent publication US20200216416A1, “QUINOLINE COMPOUNDS AS INHIBITORS OF TAM AND MET KINASES” (Array BioPharma Inc., priority 2019, published 2020) one finds IC50 data, which are given here for twelve compounds.

The target of one test is T1, human MET kinase Y1230S (Homo sapiens, UniProt P08581, Y1230S).
T1 construct: GST-tagged recombinant human MET kinase domain; purchased Signal Chem
Description: c-Met Enzyme Assay, Y1230S mutant. To be noted: averaged IC50; Y1230S 8 nM; 60-minute incubation at 22° C.; read-out: Y1230 S IC50. It is filed as binding. The essentials: (§1)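 GST-tagged recombinant MET kinase domain was incubated with 50 nM Alexa-Fluor tracer 236, 2 nM Eu-anti-GST and compound in 25 mM HEPES pH 7.4, 10 mM MgCl2, 0.01% Triton X-100, 1 mM DTT, 2% DMSO for 60 min at 22 °C. TR-FRET ratio gave percent of control, fitted 4-parameter; IC50 at 50 POC.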

The target in test [1] is T2, MET (wt) GST-tagged recombinant human MET kinase domain (Homo sapiens, UniProt P08581).
T2 construct: GST-tagged recombinant human MET kinase domain; purchased Signal Chem
Put plainly: c-Met Enzyme Assay, wild type (LanthaScreen Eu Kinase Binding). As to conditions: averaged IC50; MET (wt) 10 nM; 60-minute incubation at 22° C.; read-out: SigChem WT IC50. The essentials:
as §1
On the technique in general: TR-FRET usually uses a lanthanide donor and a delayed reading to cut background.

In the next test the target is T3, human MET kinase D1228H (Homo sapiens, UniProt P08581, D1228H).
T3 construct: GST-tagged recombinant human MET kinase domain; purchased Signal Chem
Description: c-Met Enzyme Assay, D1228H mutant. As to conditions: averaged IC50; D1228H 2 nM; 60-minute incubation at 22° C.; read-out: D1228 H IC50. It is filed as binding. The gist of the method: as §1

Test [2] has as its target T4, His-tagged recombinant human AXL cytoplasmic domain (Homo sapiens, UniProt P30530).
T4 construct: His-tagged recombinant human AXL cytoplasmic domain
T4 sequence (P30530 473-894 limits assumed): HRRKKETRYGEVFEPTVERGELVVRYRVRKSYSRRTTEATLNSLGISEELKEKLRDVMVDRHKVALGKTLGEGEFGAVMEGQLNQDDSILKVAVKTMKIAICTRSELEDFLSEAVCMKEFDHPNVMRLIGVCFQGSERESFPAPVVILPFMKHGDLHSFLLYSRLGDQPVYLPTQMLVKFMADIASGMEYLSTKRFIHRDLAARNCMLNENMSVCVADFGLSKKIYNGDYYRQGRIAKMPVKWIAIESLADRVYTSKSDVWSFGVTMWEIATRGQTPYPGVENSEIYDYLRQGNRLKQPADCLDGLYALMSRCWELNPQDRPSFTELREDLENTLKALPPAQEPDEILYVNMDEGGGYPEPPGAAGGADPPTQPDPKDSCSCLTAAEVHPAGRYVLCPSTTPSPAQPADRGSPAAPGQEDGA
Put plainly: AXL Enzyme Assay (LanthaScreen Eu Kinase Binding). As to conditions: averaged IC50; 60-minute incubation at 22° C.; TR-FRET. The gist of the method: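 TR-FRET binding-displacement format: 20 nM Alexa Fluor Tracer 236, 2 nM biotin-anti-His and 2 nM Eu-streptavidin in 25 mM HEPES pH 7.4, 10 mM MgCl2, 0.01% Triton X-100, 2% DMSO. After 60 min at 22 °C, ratiometric percent of control was fitted to a 4-parameter logistic curve, IC50 taken at 50 POC.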

In test [3] the target is T5, His-tagged recombinant human MER cytoplasmic domain (Homo sapiens, UniProt Q12866).
T5 construct: His-tagged recombinant human MER cytoplasmic domain
T5 sequence (Q12866 527-999 limits assumed): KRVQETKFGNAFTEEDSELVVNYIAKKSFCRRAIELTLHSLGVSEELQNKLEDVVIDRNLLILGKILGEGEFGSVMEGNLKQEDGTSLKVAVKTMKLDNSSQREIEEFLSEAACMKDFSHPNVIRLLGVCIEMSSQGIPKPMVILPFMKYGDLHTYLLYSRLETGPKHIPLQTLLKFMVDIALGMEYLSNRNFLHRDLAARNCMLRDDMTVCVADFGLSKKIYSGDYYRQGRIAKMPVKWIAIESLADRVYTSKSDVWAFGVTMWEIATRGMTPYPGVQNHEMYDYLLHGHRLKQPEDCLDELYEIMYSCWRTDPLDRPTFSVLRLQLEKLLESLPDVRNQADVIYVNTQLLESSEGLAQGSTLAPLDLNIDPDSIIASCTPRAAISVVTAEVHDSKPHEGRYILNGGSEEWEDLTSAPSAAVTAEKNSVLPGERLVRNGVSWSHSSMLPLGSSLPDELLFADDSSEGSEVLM
Description: MER Enzyme Assay (LanthaScreen Eu Kinase Binding). To be noted: averaged IC50; MER 5 nM; 60-minute incubation at 22° C.; TR-FRET. The gist of the method: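 TR-FRET binding: 5 nM His-MER cytoplasmic domain with 20 nM Tracer 236, 2 nM biotin-anti-His and 2 nM Eu-streptavidin in pH 7.4 HEPES, 10 mM MgCl2, 2% DMSO, with threefold compound dilutions, 60 min at 22 °C. Percent of control was fit to a 4-parameter logistic, and IC50 was taken at 50 POC.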

The target in another test is T6, human MET kinase Y1230H (Homo sapiens, UniProt P08581, Y1230H).
T6 construct: GST-tagged recombinant human MET kinase domain; purchased Signal Chem
Put plainly: c-Met Enzyme Assay, Y1230H mutant. It is filed as binding. As to conditions: averaged IC50; Y1230H 5 nM; 60-minute incubation at 22° C.; read-out: Y1230 H IC50. The gist of the method:
as §1

In another test the target is T7, human MET kinase D1228N (Homo sapiens, UniProt P08581, D1228N).
T7 construct: GST-tagged recombinant human MET kinase domain; purchased Signal Chem
Put plainly: c-Met Enzyme Assay, D1228N mutant. It is filed as binding. To be noted: averaged IC50; D1228N 2 nM; 60-minute incubation at 22° C.; read-out: D1228 N IC50. The gist of the method:
as §1

T2 sequence (P08581 1078-1345 limits assumed): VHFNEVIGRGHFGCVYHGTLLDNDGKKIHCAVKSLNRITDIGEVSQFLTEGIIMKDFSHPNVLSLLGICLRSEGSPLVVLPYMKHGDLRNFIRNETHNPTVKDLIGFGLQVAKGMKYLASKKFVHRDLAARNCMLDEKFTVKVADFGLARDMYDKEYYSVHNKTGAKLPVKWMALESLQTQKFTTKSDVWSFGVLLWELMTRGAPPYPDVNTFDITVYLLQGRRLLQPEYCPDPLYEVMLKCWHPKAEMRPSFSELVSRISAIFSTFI
T1 sequence (P08581 1078-1345 Y1230S): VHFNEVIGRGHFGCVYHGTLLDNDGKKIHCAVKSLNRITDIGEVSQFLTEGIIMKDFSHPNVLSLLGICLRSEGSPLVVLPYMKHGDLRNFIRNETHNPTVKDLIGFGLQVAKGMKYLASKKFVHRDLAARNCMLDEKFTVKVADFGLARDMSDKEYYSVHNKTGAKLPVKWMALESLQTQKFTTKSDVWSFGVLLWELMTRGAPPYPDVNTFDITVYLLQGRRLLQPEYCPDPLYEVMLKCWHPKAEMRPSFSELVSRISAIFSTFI
T3 sequence (P08581 1078-1345 D1228H): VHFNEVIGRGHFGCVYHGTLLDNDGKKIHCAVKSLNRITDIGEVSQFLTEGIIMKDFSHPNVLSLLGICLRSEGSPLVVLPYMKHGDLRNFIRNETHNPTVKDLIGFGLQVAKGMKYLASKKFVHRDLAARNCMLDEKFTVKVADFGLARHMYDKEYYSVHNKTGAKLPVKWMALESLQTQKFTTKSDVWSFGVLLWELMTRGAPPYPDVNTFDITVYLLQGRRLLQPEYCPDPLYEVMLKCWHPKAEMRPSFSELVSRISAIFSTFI
T6 sequence (P08581 1078-1345 Y1230H): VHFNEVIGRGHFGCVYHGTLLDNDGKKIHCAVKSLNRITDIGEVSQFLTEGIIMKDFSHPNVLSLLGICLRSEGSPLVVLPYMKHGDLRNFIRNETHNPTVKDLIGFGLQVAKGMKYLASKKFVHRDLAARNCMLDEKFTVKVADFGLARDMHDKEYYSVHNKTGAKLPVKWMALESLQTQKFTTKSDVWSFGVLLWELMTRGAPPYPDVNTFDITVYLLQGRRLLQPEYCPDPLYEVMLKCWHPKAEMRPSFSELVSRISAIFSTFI
T7 sequence (P08581 1078-1345 D1228N): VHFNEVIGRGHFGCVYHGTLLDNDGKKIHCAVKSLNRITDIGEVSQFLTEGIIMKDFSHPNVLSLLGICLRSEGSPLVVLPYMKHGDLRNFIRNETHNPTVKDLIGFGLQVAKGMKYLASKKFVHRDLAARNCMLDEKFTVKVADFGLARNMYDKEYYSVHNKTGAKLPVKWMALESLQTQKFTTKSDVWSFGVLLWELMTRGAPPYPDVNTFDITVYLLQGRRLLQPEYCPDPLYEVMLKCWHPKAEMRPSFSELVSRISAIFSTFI

As for `COc1cc2nccc(Oc3ccc(NC(=O)c4cn(C(C)C)c(C)c(-c5ccc(F)c(F)c5)c4=O)nc3)c2cc1OC` [Example 28, 5-(3,4-difluorophenyl)-N-(5-((6,7-dimethoxyquinolin-4yl)oxy)pyridin-2-yl)-1-isopropyl-6-methyl-4-oxo-1,4-dihydropyridine-3-carboxamide], the IC50 at human MET kinase Y1230S is 1.8 nM; in test [1], 2 nM; at human MET kinase D1228H it was 1.4 nM; in test [2] it was 1 nM; in test [3] it was 3 nM; on human MET kinase Y1230H it was 7.8 nM. Also, the IC50 on human MET kinase D1228N stood at 3.6 nM.

For the compound `CCc1c(-c2ccc(F)cc2)c(=O)c(C(=O)Nc2ccc(Oc3ccnc4cc(OC)c(OC)cc34)cn2)cn1C(C)C` [Example 29, N-(5-((6,7-dimethoxyquinolin-4yl)oxy)pyridin-2-yl)-6-ethyl-5-(4-fluorophenyl)-1-isopropyl-4-oxo-1,4-dihydropyridine-3-carboxamide], the IC50 at human MET kinase Y1230S is 1.5 nM; in test [1] it was 4.3 nM; on human MET kinase D1228H, 2.4 nM; in test [2] it was 1 nM; in test [3], 3 nM; at human MET kinase Y1230H, 4.2 nM. Moreover, on human MET kinase D1228N, the IC50 is 3.1 nM.

Turning to `COc1ccc(-c2cn(C(C)C)cc(C(=O)Nc3ccc(Oc4ccnc5cc(OC)c(OC)cc45)cn3)c2=O)cc1` [Example 30, N-(5-((6,7-dimethoxyquinolin-4yl)oxy)pyridin-2-yl)-1-isopropyl-5-(4-methoxyphenyl)-4-oxo-1,4-dihydropyridine-3-carboxamide], the IC50 on human MET kinase Y1230S turned out to be 89.2 nM; in test [1] it was 39.7 nM; on human MET kinase D1228H it was 57.4 nM; in test [2], 2 nM; in test [3] it was 5 nM; on human MET kinase Y1230H it was 103 nM. Also, the IC50 on human MET kinase D1228N was 100 nM.

Regarding `COc1ccc(-c2cn(C(C)C)cc(C(=O)Nc3ccc(Oc4ccnc5cc(OC)c(OC)cc45)cn3)c2=O)c(F)c1` [Example 31, N-(5-((6,7-dimethoxyquinolin-4yl)oxy)pyridin-2-yl)-5-(2-fluoro-4-methoxyphenyl)-1-isopropyl-4-oxo-1,4-dihydropyridine-3-carboxamide], the IC50 is 72.1 nM on human MET kinase Y1230S; 41 nM in test [1]; 55.7 nM at human MET kinase D1228H; 1 nM in test [2]; 5 nM in test [3]; 98.2 nM on human MET kinase Y1230H. Further, at human MET kinase D1228N, the IC50 turned out to be 62.7 nM.

Regarding `COc1cc2nccc(Oc3ccc(NC(=O)c4cn(C(C)C)cc(-c5ccc(F)cc5OC)c4=O)nc3)c2cc1OC` [Example 32, N-(5-((6,7-dimethoxyquinolin-4yl)oxy)pyridin-2-yl)-5-(4-fluoro-2-methoxyphenyl)-1-isopropyl-4-oxo-1,4-dihydropyridine-3-carboxamide], the IC50 on human MET kinase Y1230S stood at 7.1 nM; in test [1] it was 3 nM; on human MET kinase D1228H, 10 nM; in test [2], 2 nM; in test [3] it was 3 nM; at human MET kinase Y1230H, 12.1 nM. Besides, the IC50 on human MET kinase D1228N was determined as 17.4 nM.

With `COc1ccc2nccc(Oc3ccc(NC(=O)c4cn(C(C)C)c(C)c(-c5ccc(F)cc5)c4=O)nc3)c2c1` [Example 33, 5-(4-fluorophenyl)-1-isopropyl-N-(5-((6-methoxyquinolin-4-yl)oxy)pyridin-2-yl)-6-methyl-4-oxo-1,4-dihydropyridine-3-carboxamide], the IC50 at human MET kinase Y1230S amounted to 5 nM; in test [1], 3.9 nM; on human MET kinase D1228H, 5.2 nM; in test [2], 1 nM; in test [3], 5 nM; on human MET kinase Y1230H, 11.2 nM. Besides, the IC50 at human MET kinase D1228N worked out at 13.3 nM.

In the case of `COc1cc2nccc(Oc3ccc(NC(=O)c4cn(CCC(C)C)cc(-c5ccc(F)cc5)c4=O)nc3)c2cc1OC` [Example 34, N-(5-((6,7-dimethoxyquinolin-4yl)oxy)pyridin-2-yl)-5-(4-fluorophenyl)-1-isopentyl-4-oxo-1,4-dihydropyridine-3-carboxamide], the IC50 came to 4.1 nM at human MET kinase Y1230S; 4 nM in test [1]; 5.5 nM at human MET kinase D1228H; 2 nM in test [2]; 9 nM in test [3]; 5.9 nM at human MET kinase Y1230H. The IC50 at human MET kinase D1228N worked out at 7.2 nM.

As to `COc1cc2nccc(Oc3ccc(NC(=O)c4cn(CCC(C)C)cc(-c5ccc(F)c(F)c5)c4=O)nc3)c2cc1OC` [Example 35, 5-(3,4-difluorophenyl)-N-(5-((6,7-dimethoxyquinolin-4yl)oxy)pyridin-2-yl)-1-isopentyl-4-oxo-1,4-dihydropyridine-3-carboxamide], the IC50 amounted to 8.5 nM at human MET kinase Y1230S; 13.8 nM in test [1]; 8.3 nM on human MET kinase D1228H; 6 nM in test [2]; 15 nM in test [3]; 18.3 nM on human MET kinase Y1230H. In addition, the IC50 at human MET kinase D1228N was determined as 16.2 nM.

With `COc1cc2nccc(Oc3ccc(NC(=O)c4cn(CCC(C)C)cc(-c5ccc(F)cc5F)c4=O)nc3)c2cc1OC` [Example 36, 5-(2,4-difluorophenyl)-N-(5-((6,7-dimethoxyquinolin-4yl)oxy)pyridin-2-yl)-1-isopentyl-4-oxo-1,4-dihydropyridine-3-carboxamide], the concentration for half-maximal inhibition (IC50) is 2.3 nM at human MET kinase Y1230S; 2.4 nM in test [1]; 1.8 nM at human MET kinase D1228H; 3 nM in test [2]; 8 nM in test [3]; 4.4 nM on human MET kinase Y1230H. The IC50 at human MET kinase D1228N was determined as 4.8 nM.

On to `COc1cc2nccc(Oc3ccc(NC(=O)c4cn(CCC(C)C)cc(-c5ccc(Cl)cc5)c4=O)nc3)c2cc1OC` [Example 37], for which the IC50 was found to be 10.2 nM at human MET kinase Y1230S; 10 nM in test [1]; 10.5 nM at human MET kinase D1228H; 5 nM in test [2]; 16 nM in test [3]; 16.8 nM at human MET kinase Y1230H. Further, the IC50 on human MET kinase D1228N was determined as 16.8 nM.

As to `CCn1cc(C(=O)Nc2ccc(Oc3ccnc4ccc(OC)cc34)cn2)c(=O)c(-c2ccc(F)cc2)c1` [Example 39, 1-ethyl-5-(4-fluorophenyl)-N-(5-((6-methoxyquinolin-4-yl)oxy)pyridin-2-yl)-4-oxo-1,4-dihydropyridine-3-carboxamide], the IC50 at human MET kinase Y1230S amounted to 55.3 nM; in test [1] it was 29.4 nM; at human MET kinase D1228H, 66.3 nM; in test [2], 3 nM; in test [3], 16 nM; at human MET kinase Y1230H it was 209 nM. At human MET kinase D1228N, the IC50 was 179 nM.

For `COc1ccc2nccc(Oc3ccc(NC(=O)c4cn(C)cc(-c5ccc(F)cc5)c4=O)nc3)c2c1` [Example 41, 5-(4-fluorophenyl)-N-(5-((6-methoxyquinolin-4yl)oxy)pyridin-2-yl)-1-methyl-4-oxo-1,4-dihydropyridine-3-carboxamide], the IC50 on human MET kinase Y1230S came to 226 nM; in test [1] it was 117 nM; at human MET kinase D1228H, 258 nM; in test [2], 5 nM; in test [3], 33 nM; on human MET kinase Y1230H, 328 nM. In addition, on human MET kinase D1228N, the IC50 turned out to be 646 nM.

The term IC50 denotes the concentration that gives 50% inhibition.
